Measured values as given in ChEMBL document CHEMBL1201862, “PubChem BioAssay data set” (2004).
Values joined by “and” are separate entries in the source; they are usually repeats but may differ in a detail not shown here. Identical values can stand only once. Active and inactive are the calls of the source.

Columns and labels:
[1] = biological target: FAD-linked sulfhydryl oxidase ALR (Homo sapiens, UniProt P55789); test: inhibitors of human ALR sulfhydryl oxidase, dose response, biochemical, H2O2 detection, luminescence, cherry-pick (AID 493248)
[2] = biological target: T1, Corticotropin-releasing factor receptor 2/Corticotropin-releasing factor-binding protein (Homo sapiens, UniProt P24387+Q13324); test: Dose Response confirmation of uHTS hits for small molecule antagonists of the CRF-binding protein and CRF-R2 receptor complex.; type: functional; settings: read-out: IC50_Mean
T1 sequence (Q13324 whole entry): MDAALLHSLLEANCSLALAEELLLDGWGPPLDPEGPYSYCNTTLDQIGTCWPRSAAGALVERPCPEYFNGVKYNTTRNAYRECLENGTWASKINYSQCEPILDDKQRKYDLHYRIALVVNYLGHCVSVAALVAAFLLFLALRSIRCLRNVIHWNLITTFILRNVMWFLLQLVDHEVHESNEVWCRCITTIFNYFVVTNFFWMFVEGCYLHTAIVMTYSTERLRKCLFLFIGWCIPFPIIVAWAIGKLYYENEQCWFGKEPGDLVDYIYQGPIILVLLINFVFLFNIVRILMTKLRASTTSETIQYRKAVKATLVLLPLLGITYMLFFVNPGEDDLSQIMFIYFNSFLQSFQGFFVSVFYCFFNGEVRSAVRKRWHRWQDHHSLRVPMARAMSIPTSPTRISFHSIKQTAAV
T1 sequence (P24387 whole entry): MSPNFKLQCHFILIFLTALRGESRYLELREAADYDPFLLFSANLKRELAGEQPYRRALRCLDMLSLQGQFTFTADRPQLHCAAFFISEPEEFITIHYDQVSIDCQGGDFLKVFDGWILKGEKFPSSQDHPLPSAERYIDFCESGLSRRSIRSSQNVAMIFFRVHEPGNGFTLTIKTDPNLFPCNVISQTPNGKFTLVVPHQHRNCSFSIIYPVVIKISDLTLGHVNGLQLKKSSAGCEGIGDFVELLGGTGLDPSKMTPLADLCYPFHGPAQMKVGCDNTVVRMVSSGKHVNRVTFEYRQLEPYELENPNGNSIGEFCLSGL

[3] = biological target: T1, Corticotropin-releasing factor receptor 2/Corticotropin-releasing factor-binding protein; test: activators of CRF receptor 2 with binding protein – uHTS hits, confirmation (AID 602473); type: functional; settings: read-out: EC50_Mean
Cytochrome P450 3A4 = Cytochrome P450 3A4 (Homo sapiens, UniProt P08684); settings: Potency;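 note: confirmatory qHTS run detecting inhibitors and substrates of CYP3A4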
[4] = biological target: Induced myeloid leukemia cell differentiation protein Mcl-1 (Homo sapiens, UniProt Q07820); type: functional
Leucine aminopeptidase = biological target: T2, Leucine aminopeptidase (Plasmodium falciparum 3D7, UniProt Q8IL11); test: P. falciparum M17LAP inhibitors, primary screen, biochemical, fluorogenic H-Leu-NHMec substrate, 1536-well (AID 1619); type: functional
T2 sequence (Q8IL11 whole entry): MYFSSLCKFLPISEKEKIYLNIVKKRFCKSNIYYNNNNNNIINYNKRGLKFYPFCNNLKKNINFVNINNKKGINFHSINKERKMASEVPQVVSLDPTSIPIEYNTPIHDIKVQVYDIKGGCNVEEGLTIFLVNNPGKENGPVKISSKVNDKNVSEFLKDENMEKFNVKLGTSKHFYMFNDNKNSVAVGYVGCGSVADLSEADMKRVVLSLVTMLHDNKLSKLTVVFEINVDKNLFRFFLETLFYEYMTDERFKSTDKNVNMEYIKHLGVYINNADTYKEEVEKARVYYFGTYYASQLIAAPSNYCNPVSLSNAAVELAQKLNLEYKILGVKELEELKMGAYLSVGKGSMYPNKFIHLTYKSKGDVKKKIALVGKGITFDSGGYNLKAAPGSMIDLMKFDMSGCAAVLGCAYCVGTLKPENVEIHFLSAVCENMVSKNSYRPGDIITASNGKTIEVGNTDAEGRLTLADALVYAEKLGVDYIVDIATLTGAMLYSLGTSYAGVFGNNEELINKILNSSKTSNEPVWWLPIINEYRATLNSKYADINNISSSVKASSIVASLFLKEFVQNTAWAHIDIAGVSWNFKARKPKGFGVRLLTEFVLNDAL

Fatty acid synthase = Fatty acid synthase (Homo sapiens, UniProt P49327); test: FAS thioesterase domain inhibitors, dose response, biochemical, kinetic fluorescence intensity (AID 624326); type: functional;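 note: rate of fluorescence rise from hydrolysis of a fluorogenic O-methyl fluorescein ester substrate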
[5] = inhibitors of intracellular T. cruzi replication, confirmation, NIH3T3 host cells, beta-gal luminescence (AID 2044); type: functional, cell-based;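 note: intracellular parasites grown in NIH/3T3 mouse fibroblasts as host cells; luminescent beta-galactosidase reporter signal from transgenic T. cruzi replicating inside host cells; inhibitors lower the luminescence signal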
[6] = cytotoxicity toward NIH3T3 fibroblasts, dose response, counter-screen, cell-based, ATP luminescence, mouse fibroblasts (AID 2010); type: functional;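 note: cells exposed to compound for about 90 hours before reading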
[7] = biological target: T3, Replicative DNA helicase DnaB (Mycobacterium tuberculosis, UniProt P9WMR3); test: DnaB intein splicing inhibitors, dose response, biochemical, cell-free fluorescence (AID 449749); type: functional
T3 sequence (P9WMR3 whole entry): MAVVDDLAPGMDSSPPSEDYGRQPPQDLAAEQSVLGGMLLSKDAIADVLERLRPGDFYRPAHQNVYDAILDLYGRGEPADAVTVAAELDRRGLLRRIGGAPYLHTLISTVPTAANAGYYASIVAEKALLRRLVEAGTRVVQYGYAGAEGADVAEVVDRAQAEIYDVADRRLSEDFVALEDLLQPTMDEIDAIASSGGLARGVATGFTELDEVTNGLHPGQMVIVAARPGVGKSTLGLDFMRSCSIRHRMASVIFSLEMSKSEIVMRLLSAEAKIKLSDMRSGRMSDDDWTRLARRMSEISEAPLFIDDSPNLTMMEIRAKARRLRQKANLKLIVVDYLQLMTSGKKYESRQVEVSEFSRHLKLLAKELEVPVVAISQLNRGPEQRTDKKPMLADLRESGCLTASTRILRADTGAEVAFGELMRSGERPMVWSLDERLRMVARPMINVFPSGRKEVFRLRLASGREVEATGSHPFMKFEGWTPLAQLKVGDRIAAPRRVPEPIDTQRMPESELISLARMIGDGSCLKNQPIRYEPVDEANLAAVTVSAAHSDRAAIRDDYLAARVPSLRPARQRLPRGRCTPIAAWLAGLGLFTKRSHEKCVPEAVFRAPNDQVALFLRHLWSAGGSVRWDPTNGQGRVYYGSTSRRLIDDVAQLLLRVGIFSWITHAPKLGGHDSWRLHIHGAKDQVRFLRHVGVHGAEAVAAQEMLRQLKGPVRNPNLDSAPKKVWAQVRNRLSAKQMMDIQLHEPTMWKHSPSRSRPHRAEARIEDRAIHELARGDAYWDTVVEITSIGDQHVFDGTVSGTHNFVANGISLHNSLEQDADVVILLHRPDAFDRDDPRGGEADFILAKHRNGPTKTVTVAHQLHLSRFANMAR

Protein RecA = biological target: T4, Protein RecA (Mycobacterium tuberculosis, UniProt P9WHJ3); test: Fluorescence Cell-Free Homogeneous Dose Retest to Identify Inhibitors of RecA-Intein Splicing Activity. [Related pubchem assays (depositor defined):AID2097, AID2223, AID489010, AID492950]; type: functional
T4 sequence (P9WHJ3 whole entry): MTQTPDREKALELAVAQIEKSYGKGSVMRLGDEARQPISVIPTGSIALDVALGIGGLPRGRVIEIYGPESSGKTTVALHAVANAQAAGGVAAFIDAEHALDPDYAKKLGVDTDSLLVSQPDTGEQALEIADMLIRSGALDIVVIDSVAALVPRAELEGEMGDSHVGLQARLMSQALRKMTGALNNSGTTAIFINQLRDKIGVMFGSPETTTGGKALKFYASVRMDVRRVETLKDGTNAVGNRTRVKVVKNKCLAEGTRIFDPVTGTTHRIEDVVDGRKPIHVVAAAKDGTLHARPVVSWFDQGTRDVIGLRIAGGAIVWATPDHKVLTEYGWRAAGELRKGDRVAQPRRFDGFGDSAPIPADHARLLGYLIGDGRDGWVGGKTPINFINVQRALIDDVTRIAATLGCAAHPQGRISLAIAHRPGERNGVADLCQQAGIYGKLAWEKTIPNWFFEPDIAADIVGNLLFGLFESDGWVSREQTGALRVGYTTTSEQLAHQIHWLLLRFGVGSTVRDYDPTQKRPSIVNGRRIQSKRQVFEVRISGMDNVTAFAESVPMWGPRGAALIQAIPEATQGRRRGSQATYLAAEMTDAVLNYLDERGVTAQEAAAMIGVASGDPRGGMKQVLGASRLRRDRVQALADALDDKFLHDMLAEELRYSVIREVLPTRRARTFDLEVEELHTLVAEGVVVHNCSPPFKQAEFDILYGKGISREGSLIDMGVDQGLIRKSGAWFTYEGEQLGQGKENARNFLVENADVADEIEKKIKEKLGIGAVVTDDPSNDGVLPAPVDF

P388/ADR = test: cells; type: functional; settings: Mus musculus
SN12K1 = test: cells; type: functional; settings: Homo sapiens
P388 = test: cells; type: functional; settings: Mus musculus
[8] = ZM109 Env clade C HIV-1 fusion inhibitors, dose response, HeLa effector, CEM target cells, luciferase, cherry-pick (AID 652058); type: functional, cell-based

Chain of FAD-linked sulfhydryl oxidase ALR (P55789 whole entry): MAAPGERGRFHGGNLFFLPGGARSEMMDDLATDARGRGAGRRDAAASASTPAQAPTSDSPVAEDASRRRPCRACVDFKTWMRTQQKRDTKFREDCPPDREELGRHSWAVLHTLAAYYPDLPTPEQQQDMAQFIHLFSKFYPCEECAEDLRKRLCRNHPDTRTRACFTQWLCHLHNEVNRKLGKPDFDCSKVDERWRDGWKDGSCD
Chain of Cytochrome P450 3A4 (P08684 whole entry): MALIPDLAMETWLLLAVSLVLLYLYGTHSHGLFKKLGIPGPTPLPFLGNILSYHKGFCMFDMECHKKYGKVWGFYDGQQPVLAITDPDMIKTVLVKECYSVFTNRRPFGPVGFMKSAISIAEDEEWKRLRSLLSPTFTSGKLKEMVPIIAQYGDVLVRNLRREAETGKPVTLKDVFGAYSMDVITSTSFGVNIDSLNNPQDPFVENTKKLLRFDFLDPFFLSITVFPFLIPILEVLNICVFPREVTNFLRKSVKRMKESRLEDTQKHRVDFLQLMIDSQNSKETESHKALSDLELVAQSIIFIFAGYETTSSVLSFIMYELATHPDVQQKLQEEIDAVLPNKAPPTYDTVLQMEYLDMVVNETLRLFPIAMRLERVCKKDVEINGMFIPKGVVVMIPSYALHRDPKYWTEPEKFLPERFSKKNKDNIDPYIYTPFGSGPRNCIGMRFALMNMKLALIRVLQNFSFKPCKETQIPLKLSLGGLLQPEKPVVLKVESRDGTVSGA
Chain of Induced myeloid leukemia cell differentiation protein Mcl-1 (Q07820 whole entry): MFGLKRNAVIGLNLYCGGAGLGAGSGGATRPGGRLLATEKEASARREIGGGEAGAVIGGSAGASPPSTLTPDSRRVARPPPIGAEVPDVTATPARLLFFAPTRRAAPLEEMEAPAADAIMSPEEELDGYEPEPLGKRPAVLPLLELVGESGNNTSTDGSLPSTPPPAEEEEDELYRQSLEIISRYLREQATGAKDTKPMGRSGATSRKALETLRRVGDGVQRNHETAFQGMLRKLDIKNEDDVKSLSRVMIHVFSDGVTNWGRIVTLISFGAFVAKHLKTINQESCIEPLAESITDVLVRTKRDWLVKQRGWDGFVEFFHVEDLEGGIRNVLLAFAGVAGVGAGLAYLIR
Chain of Fatty acid synthase (P49327 whole entry, the tested form may be a part): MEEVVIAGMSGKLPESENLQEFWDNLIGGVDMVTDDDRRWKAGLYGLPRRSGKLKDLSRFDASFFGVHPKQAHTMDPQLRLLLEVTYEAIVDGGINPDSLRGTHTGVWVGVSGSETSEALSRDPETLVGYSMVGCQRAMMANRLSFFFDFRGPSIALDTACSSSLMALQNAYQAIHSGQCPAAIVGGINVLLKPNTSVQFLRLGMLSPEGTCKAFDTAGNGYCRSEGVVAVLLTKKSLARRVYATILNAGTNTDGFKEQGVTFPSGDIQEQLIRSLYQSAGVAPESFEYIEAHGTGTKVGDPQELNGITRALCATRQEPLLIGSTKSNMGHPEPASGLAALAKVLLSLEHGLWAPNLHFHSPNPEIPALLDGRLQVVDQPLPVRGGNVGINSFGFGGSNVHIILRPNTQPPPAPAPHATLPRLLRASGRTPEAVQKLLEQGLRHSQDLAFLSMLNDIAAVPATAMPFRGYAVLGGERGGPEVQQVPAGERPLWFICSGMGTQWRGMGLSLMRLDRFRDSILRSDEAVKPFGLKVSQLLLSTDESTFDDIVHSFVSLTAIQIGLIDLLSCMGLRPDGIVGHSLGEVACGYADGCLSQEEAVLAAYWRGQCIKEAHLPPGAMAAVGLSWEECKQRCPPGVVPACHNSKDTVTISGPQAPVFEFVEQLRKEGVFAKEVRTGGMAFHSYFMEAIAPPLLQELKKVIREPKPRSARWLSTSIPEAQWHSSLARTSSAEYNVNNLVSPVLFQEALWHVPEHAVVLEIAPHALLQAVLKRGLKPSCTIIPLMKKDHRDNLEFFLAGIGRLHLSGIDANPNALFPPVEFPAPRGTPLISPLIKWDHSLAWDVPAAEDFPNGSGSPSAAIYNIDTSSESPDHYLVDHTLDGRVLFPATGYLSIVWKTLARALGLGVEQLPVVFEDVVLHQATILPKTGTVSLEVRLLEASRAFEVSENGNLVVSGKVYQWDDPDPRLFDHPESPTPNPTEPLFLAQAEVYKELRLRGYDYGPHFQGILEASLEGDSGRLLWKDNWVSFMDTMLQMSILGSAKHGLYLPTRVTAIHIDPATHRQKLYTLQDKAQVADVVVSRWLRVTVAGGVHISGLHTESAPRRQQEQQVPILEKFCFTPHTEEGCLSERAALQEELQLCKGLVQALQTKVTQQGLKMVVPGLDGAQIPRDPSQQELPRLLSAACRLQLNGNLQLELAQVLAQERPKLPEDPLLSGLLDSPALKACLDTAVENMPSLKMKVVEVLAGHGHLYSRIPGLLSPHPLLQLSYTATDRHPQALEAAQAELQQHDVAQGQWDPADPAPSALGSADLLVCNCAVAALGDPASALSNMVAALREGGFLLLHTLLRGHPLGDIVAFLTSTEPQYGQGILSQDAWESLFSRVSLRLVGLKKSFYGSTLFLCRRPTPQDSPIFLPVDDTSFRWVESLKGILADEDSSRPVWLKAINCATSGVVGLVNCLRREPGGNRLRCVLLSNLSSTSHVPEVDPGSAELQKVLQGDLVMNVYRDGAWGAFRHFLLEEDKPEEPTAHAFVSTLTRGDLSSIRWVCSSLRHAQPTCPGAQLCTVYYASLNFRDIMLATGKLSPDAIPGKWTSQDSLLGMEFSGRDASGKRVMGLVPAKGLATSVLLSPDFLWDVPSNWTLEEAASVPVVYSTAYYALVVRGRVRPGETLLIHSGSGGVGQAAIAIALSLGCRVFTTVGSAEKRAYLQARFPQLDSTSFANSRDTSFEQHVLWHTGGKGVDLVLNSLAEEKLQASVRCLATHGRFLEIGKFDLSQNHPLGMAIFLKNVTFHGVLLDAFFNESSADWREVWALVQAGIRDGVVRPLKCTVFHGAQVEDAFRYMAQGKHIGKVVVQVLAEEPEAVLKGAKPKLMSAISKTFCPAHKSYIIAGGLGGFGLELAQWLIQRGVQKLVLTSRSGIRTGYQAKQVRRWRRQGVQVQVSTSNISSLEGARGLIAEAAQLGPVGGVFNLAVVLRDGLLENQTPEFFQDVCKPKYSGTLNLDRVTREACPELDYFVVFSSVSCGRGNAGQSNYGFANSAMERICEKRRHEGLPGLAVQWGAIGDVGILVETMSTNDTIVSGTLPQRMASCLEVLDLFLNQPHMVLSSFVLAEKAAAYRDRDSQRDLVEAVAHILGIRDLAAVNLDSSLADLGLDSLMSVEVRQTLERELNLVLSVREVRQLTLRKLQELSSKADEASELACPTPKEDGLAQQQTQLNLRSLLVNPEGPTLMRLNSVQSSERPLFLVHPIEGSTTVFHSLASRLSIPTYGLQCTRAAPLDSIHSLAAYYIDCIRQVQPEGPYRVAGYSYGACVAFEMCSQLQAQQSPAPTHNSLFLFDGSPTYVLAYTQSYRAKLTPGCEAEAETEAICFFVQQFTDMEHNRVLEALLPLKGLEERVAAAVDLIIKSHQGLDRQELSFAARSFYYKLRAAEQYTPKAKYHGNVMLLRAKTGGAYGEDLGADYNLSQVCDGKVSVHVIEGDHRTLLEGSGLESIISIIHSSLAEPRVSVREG

CCCNC(=O)c1cc2c3ccccc3n(C)c2s1
AC50 [1]: 0.137 µM (active)

CN(C)c1ccc(C(=O)NNC(=O)c2ccc(Cl)cc2)cc1
IC50 [2]: > 47.1 µM (inactive) | EC50 [3]: > 53 µM (inactive)

CC(=O)OC[C@@]1(O)C[C@]23CCC4c5ccoc5CC[C@@]4(C)C2CCC1C3 (some centres undefined)
AC50 (Cytochrome P450 3A4): 31.6 µM (inconclusive)

OCC1OC(C#Cc2ccccc2)C=CC1O (centres undefined)
AC50 (Cytochrome P450 3A4): 3.16 µM (inconclusive) and 6.31 µM (inconclusive) (2×)

COC(=O)C1=C(C(=O)c2ccccc2)C(c2ccc(O)c(OC)c2)n2nnnc2N1 (centres undefined)
IC50 [2]: > 47.1 µM (inactive) | EC50 [3]: > 53 µM (inactive)

O=C(/C=C/c1ccccc1)c1ccc(NC2=NCCCS2)cc1
IC50 [4]: 8.3 µM (active)

O=C(O)C1CC=CCC1C(=O)Nc1ccccc1 (centres undefined)
IC50 (Leucine aminopeptidase): 29 µM (active)

Cc1ccc(N2C(=O)CC(NNC(=O)c3cccc(S(=O)(=O)N4CCCC4)c3)C2=O)cc1 (centres undefined)
AC50 [1]: 9.56 µM (active)

CN(C)S(=O)(=O)c1ccc(-c2csc(-c3cccnc3)n2)cc1
IC50 (Fatty acid synthase): 3.34 µM (active)

C=CCn1c(SCc2ccc(C(=O)O)cc2)nc2sc(C)c(C)c2c1=O
AC50 [1]: 4.74 µM (active)

COc1ccc2c(C)cc(SCn3nnc4ccccc4c3=O)nc2c1
IC50 [2]: > 47.1 µM (inactive) | EC50 [3]: > 53 µM (inactive)

CCCn1c(-c2ccc(F)cc2)nc2c(NCCCN(CC)CC)nc(C)nc21
AC50 (Cytochrome P450 3A4): 20 µM (inconclusive)

Cn1c(N)c(C(=O)COC(=O)c2cc(C3CC3)nc3ccccc23)c(=O)n(C)c1=O
AC50 (Cytochrome P450 3A4): 39.8 µM (inconclusive)

Fc1ccc(OCCCCCn2ccnc2)cc1
EC50 [5]: 1.67 µM (active) | EC50 [6]: > 60 µM (not active) | IC50 [2]: > 47.1 µM (inactive) | EC50 [3]: > 53 µM (inactive)

COc1ccc(NC(=O)C(CC(=O)O)Cc2ccccc2)cc1 (centres undefined)
IC50 (Leucine aminopeptidase): 28.1 µM (active)

CC(=O)N1CC=CC1(C)C(=O)NCC1CC1 (centres undefined)
AC50 (Cytochrome P450 3A4): 31.6 µM (inconclusive)

Cn1ccnc1SCc1cn2ccccc2n1
IC50 [2]: > 47.1 µM (inactive) | EC50 [3]: > 53 µM (inactive)

Cc1ccc(C(=O)COC(=O)CNC(=O)c2ccc(N3C(=O)c4ccccc4C3=O)cc2)cc1C
IC50 [4]: 2.13 µM (not active)

Cc1ccc(-c2[nH]nc3c2C(c2ccsc2)C(C#N)=C(N)O3)cc1 (centres undefined)
IC50 (Leucine aminopeptidase): 11.3 µM (active) | AC50 [7]: 3.26 µM (active) | EC50 (Protein RecA): 1.2 µM (active)

CNC(=O)OCc1nc(SC)n(C)c1CO
GI50 (P388/ADR): > 100 µM (inactive) | GI50 (SN12K1): > 100 µM (inactive) | GI50 (P388): > 100 µM (inactive)

Cc1c(-c2cc3n(n2)C(c2cccs2)C(C#N)=C(c2ccccc2)N3)c(=O)n(-c2ccccc2)n1C (centres undefined)
GI50 (P388/ADR): 76.4 µM (inactive) | GI50 (SN12K1): 86.5 µM (inactive) | GI50 (P388): 42.1 µM (inactive)

CC1=NN(C(=O)c2ccccc2)C(=O)C1/N=N/c1ccccc1C(=O)O (centres undefined)
GI50 (P388/ADR): 5.55 µM (inactive) | GI50 (SN12K1): 3.24 µM (inactive) | GI50 (P388): 9.51 µM (inactive)

Cc1c2cc[n+](C)cc2c(COC2OC(CO)C(O)C2O)c2c3ccccc3n(C)c12 (centres undefined)
GI50 (P388/ADR): > 100 µM (inactive) | GI50 (SN12K1): 58.2 µM (inactive) | GI50 (P388): 2.69 µM (inactive)

CN(C)CCNC(=O)c1cccc2c1Nc1ccccc1S2
GI50 (P388/ADR): 2.84 µM (inactive) | GI50 (SN12K1): 8.18 µM (inactive) | GI50 (P388): 2.25 µM (inactive)

C[C@@H]1CN([C@H](C)CO)C(=O)c2cccc(NC(=O)c3cnccn3)c2O[C@H]1CN(C)Cc1ccccc1
AC50 [8]: 36.6 µM (active)

COc1cccc2c1C(=O)c1c(O)c3c(c(O)c1C2=O)C[C@@](O)(C(=O)CO)C[C@@H]3OC1CC(N2CCOCC2C#N)C(O)C(C)O1 (some centres undefined)
GI50 (SN12K1): 1.13e-05 µM (active) | GI50 (P388): 2.9e-06 µM (active)

Cc1c2cc[n+]([O-])cc2c(C)c2c1[nH]c1ccccc12
GI50 (P388/ADR): 4.45 µM (inactive) | GI50 (SN12K1): 3.38 µM (inactive) | GI50 (P388): 0.753 µM (active)

O=C(CSc1nnc(O)nc1O)N/N=C/c1ccccc1
IC50 (Leucine aminopeptidase): 21.1 µM (active)

OCC1OC(n2cnc3c2NC=NC[C@H]3O)CC1O (some centres undefined)
GI50 (P388/ADR): 291 µM (inactive) | GI50 (SN12K1): 405 µM (inactive) | GI50 (P388): 366 µM (inactive)

NC(=O)/N=N/C(N)=O [E927A]
AC50 (Cytochrome P450 3A4): 31.6 µM (inconclusive)
